# Patent US20260056197A1, “METHOD FOR MEASURING TRACP-5b AND KIT THEREFOR” (NITTO BOSEKI CO., LTD., priority 2023, published 2026)
# Tests used:
# Type in all cases: biochemical
# TRACP-5b [1] = experiment: Test 1: evaluation of TRACP-5a inhibitor in an enzyme method; conditions: Table 4; 0.1 mass % evaluation compound in chromogenic substrate solution; 7 U/L TRACP-5b solution; control without compound 6.9
# Experimental: The amount of absorbance change per minute (the amount of absorbance change per unit time during the enzymatic reaction) was determined from the absorbance change between both the time points.
# (§1) On the other hand, serial dilutions of a TRACP-5b reference solution with known activity in a 22 mM MES buffer solution (pH 5.0) as well as a 22 mM MES buffer solution (pH 5.0) as a blank were prepared; the serial dilutions of the TRACP-5b reference solution were measured using the chromogenic substrate solution containing each evaluation compound, thereby producing a standard straight line for the TRACP-5b. In addition, the serial dilutions of the TRACP-5b reference solution were measured using the chromogenic substrate solution without any evaluation compound in the same manner, thereby producing a standard straight line for the TRACP-5b. The chromogenic substrate solution containing each evaluation compound and the chromogenic substrate solution without any evaluation compound were used to measure the TRACP-5b solution and the TRACP-5a solution, and these standard straight lines were used to calculate activity values from the obtained amounts of absorbance change.
# TRACP-5a [2] = molecular target: T1, TRACP-5a (Homo sapiens, UniProt P13686); experiment: Test 2: study of concentration of TRACP-5a inhibitor (enzyme method); conditions: Table 8; for Activity value 5a: 8 U/L TRACP-5a solution, control 8.0; for 5b/5a ratio: control 0.9
# T1 construct: purchased R&D Systems, Inc
# T1 sequence (P13686 22-325): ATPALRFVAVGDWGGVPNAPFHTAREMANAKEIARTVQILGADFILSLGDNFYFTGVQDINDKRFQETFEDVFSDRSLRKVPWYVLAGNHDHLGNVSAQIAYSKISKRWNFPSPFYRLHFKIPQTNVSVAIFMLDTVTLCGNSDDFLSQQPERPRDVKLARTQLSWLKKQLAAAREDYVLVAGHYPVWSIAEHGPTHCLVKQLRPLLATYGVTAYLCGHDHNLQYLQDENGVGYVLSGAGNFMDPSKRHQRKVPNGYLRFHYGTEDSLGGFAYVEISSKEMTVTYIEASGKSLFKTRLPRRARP
# Experimental: (§2) For the measurement, Hitachi automatic analyzer model 7180 (Hitachi High-Tech Corporation) was used. To 16 μL of the 7 U/L TRACP-5b solution, or the 7 U/L TRACP-5a solution or the 8 U/L TRACP-5a solution, 200 μL of the chromogenic substrate solution containing an evaluation compound was added to start an enzymatic reaction, and the absorbance (primary wavelength: 405 nm, secondary wavelength: 480 nm) was measured for 516.0 seconds starting at 340.5 seconds after the beginning of the enzymatic reaction. The amount of absorbance change per minute (the amount of absorbance change per unit time during the enzymatic reaction) was determined from the absorbance change between both the time points.
# as §1
# (§3) For dextran sulfate sodium (5K), dextran sulfate sodium (50K), sodium polyvinyl sulfonate (5K), and sodium vinylsulfonate, the influence of the concentration on the inhibitory activity was studied.
# (§4) The concentration of each evaluation compound in the measurement reagent (chromogenic substrate solution) was adjusted as follows.
# (§5) A 7 U/L TRACP-5b solution and a 7 U/L TRACP-5a solution were used in the test using a reagent containing dextran sulfate sodium (5K) and dextran sulfate sodium (50K); a 7 U/L TRACP-5b solution and a 7 U/L or 8 U/L TRACP-5a solution were used in the test using a reagent containing sodium polyvinyl sulfonate (5K); and a 7 U/L TRACP-5b solution and an 8 U/L TRACP-5a solution were used in the test using a reagent containing sodium vinylsulfonate.
# (§6) The chromogenic substrate solution having the same composition as in Test 1 was used, except that the concentration of each evaluation compound was as described above. The measurement method was carried out in the same procedure as in Test 1.
# TRACP-5b [3] = experiment: as above; conditions: Table 8, 7 U/L TRACP-5b solution, control 6.9
# Experimental: as §2, §1, §3, §4, §5, §6
# TRACP-5a [4] = molecular target: T1, TRACP-5a; experiment: Evaluation of TRACP-5a inhibitor in EIA method; conditions: for 5b/5a ratio: Table 14, 0.1 mass % evaluation compound in chromogenic substrate solution, control without compound 1.3; for Abs. 405 nm 5a: Table 14, antibody-immobilized plate, 0.1 mass % evaluation compound in chromogenic substrate solution, 7 U/L TRACP-5a solution, control without compound 0.1956
# Experimental: (§7) A TRACP-5b monoclonal antibody (Accession Number IPOD FERM BP-7890) was diluted with PBS (8 mM disodium hydrogenphosphate, 1.5 mM sodium dihydrogenphosphate, 2.7 mM KCl, and 137 mM NaCl; pH 7.5) to 10 µg/mL, and 100 μL of the antibody-containing solution was added to each well of an ELISA plate (manufactured by Thermo Fisher Scientific, Inc., product number 468667). The solution was left to stand overnight under refrigeration, then washed 3 times with 300 μL of TBS-T (50 mM Tris-HCl, 150 mM NaCl, and 0.05% Tween 20; pH 7.5), then 300 μL of TBS containing 1.5% BSA was added, and the mixture was left to stand overnight under refrigeration.
# (§8) After the TBS containing 1.5% BSA was removed from the prepared antibody-immobilized plate, 100 μL of TBS (50 mM Tris-HCl and 150 mM NaCl, pH 7.5) and 50 μL of the 7 U/L TRACP-5b solution or the 7 U/L TRACP-5a solution were added to each well, and the mixture was reacted for 1 hour under stirring (25° C., 700 rpm). After washing 3 times with 300 µL of TBS-T, 100 μL of a chromogenic substrate solution (5 mM 2-chloro-4-nitrophenyl phosphate, 109 mM MES, and 40 mM sodium tartrate; pH 6.6) to which the evaluation compound was added at a concentration of 0.1 mass % was added to each well, and the plate was left to stand at 37° C. for 1 hour. Thereafter, 50 μL of 0.5 N NaOH was added, and the absorbance (primary wavelength: 405 nm, secondary wavelength: 490 nm) was measured with a plate reader.
# TRACP-5b [5] = experiment: Evaluation of TRACP-5a inhibitor in EIA method; conditions: Table 14, antibody-immobilized plate, 0.1 mass % evaluation compound in chromogenic substrate solution, 7 U/L TRACP-5b solution, control without compound 0.2477
# Experimental: as §7, §8
# TRACP-5a [6] = molecular target: T1, TRACP-5a; experiment: Test 1: evaluation of TRACP-5a inhibitor in an enzyme method; conditions: Table 4, 0.1 mass % evaluation compound in chromogenic substrate solution; for Activity value 5a: 7 U/L TRACP-5a solution, control without compound 6.5; for 5b/5a ratio: control without compound 1.1
# Experimental: TRACP-5b manufactured by Nittobo Medical Co., Ltd. and TRACP-5a manufactured by R&D Systems, Inc. were diluted with a 22 mM MES buffer (pH 5.0) to prepare a 7 U/L TRACP-5b solution and a 7 U/L TRACP-5a solution, and the solutions were used as measurement samples. In the measurement with sodium hyaluronate, a 7 U/L TRACP-5b solution and an 8 U/L TRACP-5a solution prepared in the same manner were used.
# A chromogenic substrate solution having the following composition was used. • 5 mM 2-chloro-4-nitrophenyl phosphate • 109 mM MES • 40 mM sodium tartrate • 0.1 mass % evaluation compound • pH 6.6
# as §2, §1
# The measurement using sodium hyaluronate was performed in a separate batch from that with other evaluation compounds.
Compound,Activity value 5b (TRACP-5b [1]) [U/L],Activity value 5a (TRACP-5a [2]; VSA Na 0.0100 mass %) [U/L],5b/5a ratio (TRACP-5a [2]; VSA Na 0.0100 mass %),Activity value 5a (TRACP-5a [2]; VSA Na 0.0150 mass %) [U/L],5b/5a ratio (TRACP-5a [2]; VSA Na 0.0150 mass %),Activity value 5b (TRACP-5b [3]; VSA Na 0.0100 mass %) [U/L],Activity value 5b (TRACP-5b [3]; VSA Na 0.0150 mass %) [U/L],5b/5a ratio (TRACP-5a [4]),Abs. 405 nm 5a (TRACP-5a [4]),Abs. 405 nm 5b (TRACP-5b [5]),Activity value 5a (TRACP-5a [6]) [U/L],5b/5a ratio (TRACP-5a [6]),Activity value 5a (TRACP-5a [2]; VSA Na 0.0200 mass %) [U/L],5b/5a ratio (TRACP-5a [2]; VSA Na 0.0200 mass %),Activity value 5b (TRACP-5b [3]; VSA Na 0.0200 mass %) [U/L]
"C=CS(=O)(=O)[O-].[Na+] [Example 5, Sodium vinylsulfonate]",6.5,6.8,1.0,5.6,1.2,6.8,6.8,3.4,0.0775,0.2600,1.6,4.1,,,
Sodium vinylsulfonate [Example 5],,,,,,,,,,,,,4.5,1.5,6.9
"β-cyclodextrin sodium sulfate [Comparative example 1, reference compound]",6.7,,,,,,,2.3,0.0853,0.1971,2.3,2.9,,,
